The values below come from US10471154B2, “Spirocyclic indolone polyethylene glycol carbonate compound, composition, preparation method and use thereof” (priority 2016, dated 2019).

The test system of one series is SJSA-1 xenografted tumor. As to the kind of experiment: Inhibitory effect on the growth of SJSA-1 xenografted tumor in nude mice. It counts as in vivo. The following applies: for Tumor volumes X ± SD (mm^3), End: End (21 days after inoculation), doxorubicin 3.0 mg/kg i.p. x6, rac-SIP 30.0 mg/kg gavage x9, SIP-PEG compounds 30.0 mg/kg i.p. x9, rac-SIP-MPEG-2000 50.0 mg/kg i.p. x9; for Tumor volumes X ± SD (mm^3), Start: Start of administration (8 days after inoculation); for Weights of Tumor X ± SD: tumor peeled off 21 days after inoculation; for Weights of Tumor X ± SD / Inhibition rate (%) on the basis of tumor volume / Inhibition rate (%) on the basis of tumor weight: doses and routes as in E5; for Inhibition rate (%) on the basis of tumor volume / Inhibition rate (%) on the basis of tumor weight: vs saline control; for Inhibition rate (%) on the basis of tumor volume: End; for inhibitory effect on tumor growth compared with PEG-free rac-SIP given by gastrointestinal administration: administered by injection, 30.0 mg/kg (rac-SIP-MPEG-2000 50.0 mg/kg). Here is the method: 72 Female Balb/c/nu nude mice (weighting 15-19 g) were provided by Beijing Huafukang BioScience Co., Inc. Certificate No.: SOCK (Beijing) 2014-0004.
(§1) Doxorubicin: prepared in sterile physiological saline at a concentration of 0.3 mg/ml; the administration dosage was 3.0 mg/kg; and the administration volume was 10 ml/kg.
(§2) rac-SIP: prepared in a solvent consisting of 4% DMA, 30% PEG400, and 66% (by volume) sterile distilled water to a solution with a concentration of 1.5 mg/ml; the administration dosage was 30.0 mg/kg, and the administration volume was 20 ml/kg.
(§3) rac-SIP-PEG-2: prepared in a solvent consisting of polyoxyethylene castor oil:95% ethanol:sterile physiological saline (1.5:1.5:7 by volume) to drug solutions with concentrations of 1.5 mg/ml and 3.0 mg/ml. The administration dosages were 15.0 mg/kg and 30.0 mg/kg. The administration volume was 10 ml/kg.
(§4) rac-SIP-PEG-3: prepared in sterile physiological saline to a solution with a concentration of 3.0 mg/ml. The administration dose was 30.0 mg/kg. The administration volume was 10 ml/kg.
(§5) chiral-R-SIP-PEG-3: prepared in sterile physiological saline to a solution with a concentration of 3.0 mg/ml. The administration dose was 30.0 mg/kg. The administration volume was 10 ml/kg.
(§6) rac-SIP-PEG-7: prepared in sterile physiological saline to a solution with a concentration of 3.0 mg/ml. The administration dose was 30.0 mg/kg. The administration volume was 10 ml/kg.
(§7) The administration dose was 50.0 mg/kg. The administration volume was 10 ml/kg.
Doxorubicin: at a dose of 3.0 mg/kg, administered intraperitoneally, once every other day, for a total of 6 times.
rac-SIP: at a dose of 30.0 mg/kg, administered by gavage, once a day, 6 times a week, for a total of 9 times.
rac-SIP-PEG-2: at a dose of 30.0 mg/kg, administered intraperitoneally, once a day, 6 times a week, for a total of 9 times.
rac-SIP-PEG-3: at a dose of 30.0 mg/kg, administered intraperitoneally, once a day, 6 times a week, for a total of 9 times.
chiral-R-SIP-PEG-3: at a dose of 30.0 mg/kg, administered intraperitoneally, once a day, 6 times a week, for a total of 9 times.
rac-SIP-PEG-7: at a dose of 30.0 mg/kg, administered intraperitoneally, once a day, 6 times a week, for a total of 9 times.
(§8) Tumor cells (SJSA-1) were harvested under aseptic conditions, and were adjusted to a cell density of 1×10^7 cells/ml with sterile physiological saline. 0.2 ml was inoculated under the skin of the axilla of nude mice, and the tumor was grown to have a diameter of 1 cm. The tumor was removed under aseptic conditions and cut into tumor masses with a size of 2.0 mm×2.0 mm, and evenly inoculated under the skin of the axilla of the nude mice. When the tumor volume reached about 250 mm^3 (8 days after inoculation), the animals were administered in groups with 9 mice in each group, and the animals with poor tumor growth were excluded. The control group used physiological saline as a control. […] Body weight was weighted 3 times a week, and the length a and the width b of the tumor were measured with a vernier caliper, and the volume of the tumor was calculated according to the formula V=a×b^2/2, where a is the length of the tumor and b is the width of the tumor. 21 Days after the inoculation, the nude mice were dislocated and photographed, and then the tumor was peeled off, weighed and photographed. RTV (relative tumor volume) and tumor inhibition rate were calculated. At the same time, the peripheral blood of nude mice was taken to count blood cells.
(§9) The data were processed by EXCEL software and expressed by Mean±SD, and the inter-group analysis was statistically processed using t test.

The nature of the next series: physchem. The following applies: 25 °C, water, thermodynamic from solid.
Series [1] is described as follows: Body weights of SJSA-1 implanted nude mice (side effects). It counts as in vivo. The following applies: for Body Weights X ± SD (g), End: End (21 days after inoculation), doxorubicin 3.0 mg/kg i.p. x6, rac-SIP 30.0 mg/kg gavage x9, SIP-PEG compounds 30.0 mg/kg i.p. x9, rac-SIP-MPEG-2000 50.0 mg/kg i.p. x9; for body weight decreased, compared with the solvent control group: SIP-PEG compounds 30.0 mg/kg i.p. (MPEG-2000 50.0 mg/kg), SIP oral 30.0 mg/kg; for Body Weights X ± SD (g), Start: Start of administration, dose per group 3.0/30.0/50.0 mg/kg as in Table 1. Here is the method: as §8, §9

A short description of series [2]: Drug preparation: dissolving in physiological saline. It counts as physicochemical. The following applies: 3.0 mg/ml (Example 14: 5.0 mg/ml) in sterile physiological saline. Here is the method: as §1, §2, §3, §4, §5, §6, §7

≈ marks a conversion by molar mass, not a printed value. Marks after values point to notes of the source that are not given here.

Turning to `COc1cc(C(N)=O)ccc1NC(=O)[C@@H]1N[C@@H](CC(C)(C)C)C2(C(=O)Nc3cc(Cl)ccc32)[C@H]1c1cccc(Cl)c1F` (mixture of isomers) [rac-SIP, rac-spiroindolinone pyrrolidinecarboxamide, reference compound], in the series on SJSA-1 xenografted tumor, the “Tumor volumes X ± SD (mm^3), End” value is reported as 1273.7 ± 506.9*** mm^3; the “Tumor volumes X ± SD (mm^3), Start” value was determined as 249.4 ± 59.5 mm^3; the “Weights of Tumor X ± SD” value worked out at 1.37 ± 0.55 g; the “Inhibition rate (%) on the basis of tumor volume” value was found to be 54.89%. The “Inhibition rate (%) on the basis of tumor weight” value in the series on SJSA-1 xenografted tumor is given as 49.69%. Also, in “physchem”, the solubility at 24 h is < 100 µg/mL. In series [1], the “Body Weights X ± SD (g), End” value is on record as 14.1 ± 1.6 g; the “body weight decreased, compared with the solvent control group” value (“body weight decreased” below) is “about 18%”; the “Body Weights X ± SD (g), Start” value stood at 17.1 ± 0.8 g.
With `COCCOCCOC(=O)OC(C)OC(=O)c1ccc(NC(=O)[C@@H]2N[C@@H](CC(C)(C)C)[C@@]3(C(=O)Nc4cc(Cl)ccc43)[C@H]2c2cccc(Cl)c2F)c(OC)c1` (mixture of isomers) [rac-SIP-PEG-2, Rac-9-oxo-2,5,8,10-tetraoxadodecan-11-yl-4-((2′S,3R,4′S,5′R)-6-chloro-4′-(3-chloro-2-fluorophenyl)-2′-neopentyl-2-oxospiro[indoline-3,3′-pyrrolidine]-5′-carboxamido)-3-methoxybenzoate], in the series on SJSA-1 xenografted tumor, the “Tumor volumes X ± SD (mm^3), End” value is listed as 1260.8 ± 597.6*** mm^3; the “Tumor volumes X ± SD (mm^3), Start” value is 242.6 ± 49.9 mm^3; the “inhibitory effect on tumor growth compared with PEG-free rac-SIP given by gastrointestinal administration” value was “slightly better inhibitory effect”; the “Weights of Tumor X ± SD” value was 1.35 ± 0.64 g. Moreover, in the series with SJSA-1 xenografted tumor, the “Inhibition rate (%) on the basis of tumor volume” value worked out at 55.36% and the “Inhibition rate (%) on the basis of tumor weight” value came out at 50.55%. The solubility at 24 h in the series “physchem” was > 400 µg/mL. In series [1], the “Body Weights X ± SD (g), End” value worked out at 15.4 ± 1.0 g; the “body weight decreased” value is “about 9.4%”; the “Body Weights X ± SD (g), Start” value stood at 17.0 ± 1.1 g.
As for `COCCOCCOCCOC(=O)OC(C)OC(=O)c1ccc(NC(=O)[C@@H]2N[C@@H](CC(C)(C)C)[C@@]3(C(=O)Nc4cc(Cl)ccc43)[C@H]2c2cccc(Cl)c2F)c(OC)c1` (mixture of isomers) [rac-SIP-PEG-3, Rac-12-oxo-2,5,8,11,13-pentaoxapentadecan-14-yl-4-((2′S,3R,4′S,5′R)-6-chloro-4′-(3-chloro-2-fluorophenyl)-2′-neopentyl-2-oxospiro[indoline-3,3′-pyrrolidine]-5′-carboxamido)-3-methoxybenzoate], in the series with SJSA-1 xenografted tumor, the “Tumor volumes X ± SD (mm^3), End” value is on record as 260.1 ± 219.3*** mm^3; the “Tumor volumes X ± SD (mm^3), Start” value is listed as 246.4 ± 23.6 mm^3; the “inhibitory effect on tumor growth compared with PEG-free rac-SIP given by gastrointestinal administration” value is “stronger inhibitory effect”; the “Weights of Tumor X ± SD” value turned out to be 0.20 ± 0.20 g. For the same compound, in the series on SJSA-1 xenografted tumor, the “Inhibition rate (%) on the basis of tumor volume” value is listed as 90.79% and the “Inhibition rate (%) on the basis of tumor weight” value is reported as 92.86%. In addition, the solubility at 24 h in the series “physchem” is > 3000 µg/mL. Besides, in series [2], the “dissolving in physiological saline for administration” value (shortened to “dissolving in physiological saline”) is recorded as “could be directly dissolved in physiological saline”. Moreover, in series [1], the “Body Weights X ± SD (g), End” value was found to be 15.9 ± 1.8 g; the “body weight decreased” value is on record as “about 7.5%”; the “Body Weights X ± SD (g), Start” value was 17.2 ± 0.7 g.
Regarding `COCCOCCOCCOCCOCCOCCOCCOC(=O)OC(C)OC(=O)c1ccc(NC(=O)[C@@H]2N[C@@H](CC(C)(C)C)[C@@]3(C(=O)Nc4cc(Cl)ccc43)[C@H]2c2cccc(Cl)c2F)c(OC)c1` (mixture of isomers) [rac-SIP-PEG-7, Rac-24-oxo-2,5,8,11,14,17,20,23,25-nonoxaheptacosan-26-yl-4-((2′S,3R,4′S,5′R)-6-chloro-4′-(3-chloro-2-fluorophenyl)-2′-neopentyl-2-oxospiro[indoline-3,3′-pyrrolidine]-5′-carboxamido)-3-methoxybenzoate], in the series with SJSA-1 xenografted tumor, the “Tumor volumes X ± SD (mm^3), End” value is 93.2 ± 65.2*** mm^3; the “Tumor volumes X ± SD (mm^3), Start” value was 247.6 ± 57.4 mm^3; the “inhibitory effect on tumor growth compared with PEG-free rac-SIP given by gastrointestinal administration” value was “stronger inhibitory effect”; the “Weights of Tumor X ± SD” value is recorded as 0.08 ± 0.14 g. Further, in the series on SJSA-1 xenografted tumor, the “Inhibition rate (%) on the basis of tumor volume” value is listed as 96.38% and the “Inhibition rate (%) on the basis of tumor weight” value is reported as 97.06%. For the same compound, the solubility at 24 h in the series “physchem” is 30000 µg/mL (≈ 29300 µM). The “dissolving in physiological saline” value in series [2] is recorded as “could be directly dissolved in physiological saline”. For the same compound, in series [1], the “Body Weights X ± SD (g), End” value is 16.1 ± 1.6 g; the “body weight decreased” value is recorded as “about 6.4%”; the “Body Weights X ± SD (g), Start” value is 17.1 ± 0.7 g.
With `COc1cc(C(=O)O)ccc1NC(=O)[C@@H]1N[C@@H](CC(C)(C)C)[C@@]2(C(=O)Nc3cc(Cl)ccc32)[C@H]1c1cccc(Cl)c1F` (racemic) [rac-SIP-acid, rac-4-((2′S,3′R,4′S,5′R)-6-chloro-4′-(3-chloro-2-fluorophenyl)-2′-neopentyl-2-oxospiro[indoline-3,3′-pyrrolidine]-5′-carboxamido)-3-methoxybenzoic acid, reference compound], the solubility at 24 h in “physchem” is < 100 µg/mL.
For `COc1cccc2c1C(=O)c1c(O)c3c(c(O)c1C2=O)C[C@@](O)(C(=O)CO)C[C@@H]3O[C@H]1C[C@H](N)[C@H](O)[C@H](C)O1` [Doxorubicin ADM, Doxorubicin, reference compound], in the series with SJSA-1 xenografted tumor, the “Tumor volumes X ± SD (mm^3), End” value is given as 1401.1 ± 658.2*** mm^3; the “Tumor volumes X ± SD (mm^3), Start” value is 241.1 ± 46.6 mm^3; the “Weights of Tumor X ± SD” value came to 1.41 ± 0.66 g; the “Inhibition rate (%) on the basis of tumor volume” value amounted to 50.38%. In the series with SJSA-1 xenografted tumor, the “Inhibition rate (%) on the basis of tumor weight” value came to 48.27%. In series [1], the “Body Weights X ± SD (g), End” value worked out at 13.7 ± 0.7 g and the “Body Weights X ± SD (g), Start” value worked out at 17.4 ± 0.7 g.
“Rac-4-((2′S,3′R,4′S,5′R)-6-chloro-4′-(3-chloro-2-fluorophenyl)-2′-neopentyl-2-oxospiro[indoline-3,3′-pyrrolidine]-5′-carboxamido)-3-methoxybenzoic acid methoxy polyethylene glycol 2000 carbonate [rac-SIP-MPEG-2000]”: in the series on SJSA-1 xenografted tumor, the “Tumor volumes X ± SD (mm^3), End” value is 102.5 ± 58.5*** mm^3; the “Tumor volumes X ± SD (mm^3), Start” value is 251.3 ± 39.8 mm^3; the “inhibitory effect on tumor growth compared with PEG-free rac-SIP given by gastrointestinal administration” value is “stronger inhibitory effect”; the “Weights of Tumor X ± SD” value was 0.09 ± 0.09 g. Further, in the series on SJSA-1 xenografted tumor, the “Inhibition rate (%) on the basis of tumor volume” value worked out at 96.02% and the “Inhibition rate (%) on the basis of tumor weight” value came out at 96.70%. Also, the “dissolving in physiological saline” value in series [2] is “could be directly dissolved in physiological saline”. Besides, in series [1], the “Body Weights X ± SD (g), End” value was found to be 16.3 ± 1.5 g; the “body weight decreased” value is “about 5.2%”; the “Body Weights X ± SD (g), Start” value turned out to be 17.4 ± 1.0 g.
